PubChem BioAssay AID248 (DTP/NCI, 2004)
“And” between values parts separate entries of the source, which are not always exact repeats. Equal entries are not always repeated. Inconclusive results and toxic doses are left out. Cut-off read from the data, not from the text of the source: active = T/C of 150% or more; inactive = T/C below 125%.

System: L1210 leukemia ip in BDF1 mice, survival T/C
Experiment: NCI In Vivo Anticancer Drug Screen. Data for tumor model L1210 Leukemia (intraperitoneal) in B6D2F1 (BDF1) mice
Settings: endpoint: mean survival time, higher = longer survival
Summary of the method: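 Tumor was transplanted into mice, which were then dosed with test compound or vehicle alone. Survival was recorded for each group, and the treated figure was expressed relative to the control figure.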

[1] = dose: 100.0 mg/kg/injection, schedule: Q04DX002 (ip), vehicle: gum acacia
[2] = dose: 200.0 mg/kg/injection, schedule: Q04DX002 (ip), vehicle: gum acacia
[3] = dose: 100.0 mg/kg/injection, schedule: Q01DX009 (ip), vehicle: Klucel (hydroxypropylcellulose) (HPC)
[4] = dose: 200.0 mg/kg/injection, schedule: Q01DX009 (ip), vehicle: Klucel (hydroxypropylcellulose) (HPC)
[5] = dose: 400.0 mg/kg/injection, schedule: Q01DX009 (ip), vehicle: Klucel (hydroxypropylcellulose) (HPC)
[6] = dose: 300.0 mg/kg/injection, schedule: Q01DX001 (ip), vehicle: saline
[7] = dose: 100.0 mg/kg/injection, schedule: Q04DX003 (ip), vehicle: Klucel (hydroxypropylcellulose) (HPC)
[8] = dose: 200.0 mg/kg/injection, schedule: Q04DX003 (ip), vehicle: Klucel (hydroxypropylcellulose) (HPC)
[9] = dose: 400.0 mg/kg/injection, schedule: Q04DX003 (ip), vehicle: Klucel (hydroxypropylcellulose) (HPC)

Measured: T/C

O=C(NC(=S)NNC(=S)NNc1ccccc1)c1ccccc1
inactive: dose: 12.5 mg/kg/injection, schedule: Q04DX002 (ip), vehicle: saline with Tween-80 101 % of control | dose: 25.0 mg/kg/injection, schedule: Q01DX009 (ip), vehicle: saline with Tween-80 102 % of control | dose: 25.0 mg/kg/injection, schedule: Q04DX002 (ip), vehicle: saline with Tween-80 107 % of control and 90 % of control | dose: 50.0 mg/kg/injection, schedule: Q01DX009 (ip), vehicle: saline with Tween-80 115 % of control | dose: 50.0 mg/kg/injection, schedule: Q04DX002 (ip), vehicle: saline with Tween-80 108 % of control | dose: 100.0 mg/kg/injection, schedule: Q04DX002 (ip), vehicle: saline with Tween-80 96 % of control and 101 % of control and 110 % of control | dose: 200.0 mg/kg/injection, schedule: Q04DX002 (ip), vehicle: saline with Tween-80 108 % of control

CC(=O)OC1CCC2C3CCC4=CC(=O)C(C(O)(C(F)(F)F)C(F)(F)F)CC4(C)C3CCC12C (stereo unspecified)
inactive: dose: 100.0 mg/kg/injection, schedule: Q01DX001 (sc), vehicle: steriod suspending solution 106 % of control | dose: 200.0 mg/kg/injection, schedule: Q01DX001 (sc), vehicle: steriod suspending solution 101 % of control | dose: 400.0 mg/kg/injection, schedule: Q01DX001 (sc), vehicle: steriod suspending solution 101 % of control

O=C(O)CCI
inactive: dose: 50.0 mg/kg/injection, schedule: Q01DX009 (ip), vehicle: saline 98 % of control | dose: 100.0 mg/kg/injection, schedule: Q01DX009 (ip), vehicle: saline 90 % of control | dose: 100.0 mg/kg/injection, schedule: Q04DX003 (ip), vehicle: other 102 % of control | dose: 200.0 mg/kg/injection, schedule: Q01DX009 (ip), vehicle: saline 100 % of control | dose: 200.0 mg/kg/injection, schedule: Q04DX003 (ip), vehicle: other 96 % of control

CSc1nc(N)cc(C(N)=O)n1
inactive: dose: 100.0 mg/kg/injection, schedule: Q01DX Z (ip), vehicle: methylcellulose (MC) 101 % of control

CC1(C)CN=C(SC(=O)c2ccc([N+](=O)[O-])cc2)S1
inactive: [1] 100 % of control | [2] 93 % of control | dose: 400.0 mg/kg/injection, schedule: Q04DX002 (ip), vehicle: gum acacia 93 % of control

CN(Cc1ccccc1Cl)C(=O)Nc1cccc(Cl)c1
inactive: [3] 97 % of control | [4] 103 % of control | [5] 114 % of control

CCCCCC1SC1CC1SC1CCCCCCCC(=O)N(CCCC)CCCC (stereo unspecified)
inactive: dose: 30.0 mg/kg/injection, schedule: Q01DX001 (ip), vehicle: saline 102 % of control | dose: 100.0 mg/kg/injection, schedule: Q01DX001 (ip), vehicle: saline 96 % of control | [6] 89 % of control

Cc1ccc(S(=O)NOCc2ccccc2)cc1 (stereo unspecified)
inactive: [7] 95 % of control | [8] 105 % of control | [9] 100 % of control

O=[N+]([O-])c1ccc(C[Se]c2ncnc3c2ccn3C2OC(CO)C(O)C2O)cc1 (stereo unspecified)
inactive: dose: 6.25 mg/kg/injection, schedule: Q01DX009 (ip), vehicle: saline 95 % of control | dose: 12.5 mg/kg/injection, schedule: Q01DX005 (ip), vehicle: saline 102 % of control | dose: 12.5 mg/kg/injection, schedule: Q01DX009 (ip), vehicle: saline 91 % of control | dose: 25.0 mg/kg/injection, schedule: Q01DX005 (ip), vehicle: saline 105 % of control | dose: 25.0 mg/kg/injection, schedule: Q01DX009 (ip), vehicle: saline 102 % of control

O=C(Nc1cccc2ccccc12)c1ccc(C(=O)Nc2cccc3ccccc23)c(C(=O)O)c1
inactive: dose: 50.0 mg/kg/injection, schedule: Q04DX002 (ip), vehicle: gum acacia 94 % of control | [1] 90 % of control | [2] 94 % of control

Cc1cccc(-c2nc(N)nc(N)n2)c1
inactive: dose: 75.0 mg/kg/injection, schedule: Q01DX001 (ip), vehicle: saline 106 % of control | dose: 150.0 mg/kg/injection, schedule: Q01DX001 (ip), vehicle: saline 104 % of control | [6] 101 % of control

S=P(c1ccccc1)(c1ccccc1)c1ccccc1
inactive: dose: 50.0 mg/kg/injection, schedule: Q04DX002 (ip), vehicle: saline 96 % of control | dose: 100.0 mg/kg/injection, schedule: Q04DX002 (ip), vehicle: saline 93 % of control | dose: 200.0 mg/kg/injection, schedule: Q04DX002 (ip), vehicle: saline 96 % of control

CCCCCCCCCCCCCCCCCC(=O)N/N=C/c1ccc(Cl)cc1
inactive: [3] 101 % of control and 88 % of control | [4] 102 % of control | [5] 98 % of control and 92 % of control

Cc1cc(C)c(Sc2cc(C)sc2C)c(C)c1
inactive: dose: 100.0 mg/kg/injection, schedule: Q01DX001 (ip), vehicle: acetone 91 % of control | dose: 100.0 mg/kg/injection, schedule: Q04DX003 (ip), vehicle: acetone 91 % of control | dose: 200.0 mg/kg/injection, schedule: Q01DX001 (ip), vehicle: acetone 91 % of control | dose: 200.0 mg/kg/injection, schedule: Q04DX003 (ip), vehicle: acetone 91 % of control | dose: 400.0 mg/kg/injection, schedule: Q01DX001 (ip), vehicle: acetone 91 % of control | dose: 400.0 mg/kg/injection, schedule: Q04DX003 (ip), vehicle: acetone 100 % of control

COc1ccc(CC2C(=O)NC(C)C(=O)N(C)C3C(=O)N(C)C(Cc4ccc(O)c(c4)Oc4ccc(cc4)C3O)C(=O)NC(C)C(=O)NC(C)C(=O)N2C)cc1 (stereo unspecified) (tested in a mixture with another compound)
inactive: dose: 0.25 mg/kg/injection, schedule: Q01DX009 (ip), vehicle: saline 112 % of control | dose: 0.5 mg/kg/injection, schedule: Q01DX009 (ip), vehicle: carboxymethylcellulose (CMC) 114 % of control | dose: 0.5 mg/kg/injection, schedule: Q01DX009 (ip), vehicle: saline 122 % of control | dose: 1.0 mg/kg/injection, schedule: Q01DX009 (ip), vehicle: carboxymethylcellulose (CMC) 115 % of control | dose: 1.0 mg/kg/injection, schedule: Q01DX009 (ip), vehicle: saline 120 % of control | dose: 2.0 mg/kg/injection, schedule: Q01DX009 (ip), vehicle: carboxymethylcellulose (CMC) 117 % of control | dose: 2.0 mg/kg/injection, schedule: Q01DX009 (ip), vehicle: saline 117 % of control

CC(c1ccccc1)C1N(c2ccccc2)CCN1c1ccccc1 (stereo unspecified)
inactive: [7] 94 % of control | [8] 100 % of control | [9] 102 % of control

COc1ccc(NC(C)=O)cc1S(=O)(=O)F
inactive: dose: 100.0 mg/kg/injection, schedule: Q01DX001 (ip), vehicle: Klucel (hydroxypropylcellulose) (HPC) 93 % of control | [7] 102 % of control | dose: 200.0 mg/kg/injection, schedule: Q01DX001 (ip), vehicle: Klucel (hydroxypropylcellulose) (HPC) 88 % of control | [8] 104 % of control | dose: 400.0 mg/kg/injection, schedule: Q01DX001 (ip), vehicle: Klucel (hydroxypropylcellulose) (HPC) 93 % of control | [9] 96 % of control

Cc1ccc(C(=O)n2c(Cl)c(C=O)c3ccccc32)cc1
inactive: dose: 50.0 mg/kg/injection, schedule: Q04DX002 (ip), vehicle: Klucel (hydroxypropylcellulose) (HPC) 94 % of control | dose: 100.0 mg/kg/injection, schedule: Q04DX002 (ip), vehicle: Klucel (hydroxypropylcellulose) (HPC) 97 % of control | dose: 200.0 mg/kg/injection, schedule: Q04DX002 (ip), vehicle: Klucel (hydroxypropylcellulose) (HPC) 94 % of control

O=C1/C(=C\c2ccccc2)SC(=Nc2ccccc2)N1c1ccccc1
inactive: [3] 101 % of control | [7] 104 % of control | [4] 98 % of control | [8] 96 % of control | [5] 93 % of control | [9] 94 % of control
